Laboratory results: article doi:10.1101/2023.05.09.538545v2, “Engineering dynamic gates in binding pocket of penicillin G acylase to selectively degrade bacterial signaling molecules” (biorxiv, 2024)

Target: T1, ecPGA (Escherichia coli penicillin G acylase) (Escherichia coli, UniProt P06875)
T1 construct: gene pac; mature alpha/beta heterodimer cut from one precursor (signal peptide and spacer removed); ecpga gene in pET-26b, E. coli BL21(DE3), purified after Kutzbach and Rauenbusch; His-tagged version made for melting analysis; WT source plasmid pKA18
T1 sequence (P06875 27-235): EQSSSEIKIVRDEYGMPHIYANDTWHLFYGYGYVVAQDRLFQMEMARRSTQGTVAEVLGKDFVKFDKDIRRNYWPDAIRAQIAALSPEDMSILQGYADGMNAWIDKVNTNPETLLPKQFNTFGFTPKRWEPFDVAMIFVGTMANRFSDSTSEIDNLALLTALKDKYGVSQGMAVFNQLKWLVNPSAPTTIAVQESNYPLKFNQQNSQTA
T1 sequence (P06875 290-846): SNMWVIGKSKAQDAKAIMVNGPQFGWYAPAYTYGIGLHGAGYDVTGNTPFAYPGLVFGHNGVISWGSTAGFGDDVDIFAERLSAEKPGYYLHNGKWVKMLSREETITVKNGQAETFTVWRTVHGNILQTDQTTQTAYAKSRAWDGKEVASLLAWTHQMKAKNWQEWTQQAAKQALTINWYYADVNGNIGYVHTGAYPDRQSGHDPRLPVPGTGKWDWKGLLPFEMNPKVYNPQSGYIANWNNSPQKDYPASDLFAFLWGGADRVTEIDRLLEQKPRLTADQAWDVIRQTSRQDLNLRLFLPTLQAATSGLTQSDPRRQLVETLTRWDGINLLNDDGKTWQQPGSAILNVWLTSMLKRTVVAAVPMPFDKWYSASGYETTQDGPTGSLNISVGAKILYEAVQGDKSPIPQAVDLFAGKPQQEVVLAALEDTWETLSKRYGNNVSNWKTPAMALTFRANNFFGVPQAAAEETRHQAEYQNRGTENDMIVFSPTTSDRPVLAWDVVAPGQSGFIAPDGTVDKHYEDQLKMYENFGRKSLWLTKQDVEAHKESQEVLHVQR
Assay: HPLC of AHL hydrolysis at […] nm, initial rates
Type: biochemical

CCCCCCCC(=O)N[C@H]1CCOC1=O [C08, N-octanoyl-L-homoserine lactone]
Km: 700 ± 40 µM
